Test system: HUVEC
Assay: Apoptosis in HUVEC incubated with 2-bromopalmitate
Format: cell-based, human
Conditions: inhibition of free fatty acid oxidation
Procedure: To test this notion, experiments were performed in HUVEC incubated with 2-bromopalmitate, an inhibitor of CPT1 which inhibits free fatty oxidation, or a higher concentration of free fatty acids (0.5 mM vs. 0.1 mM palmitate).

SMILES: CCCCCCCCCCCCCCC(Br)C(=O)O (stereo not shown) [2-bromopalmitate]
- apoptosis: promotes apoptosis

— patent US20030212014A1 (priority 2000, published 2003)
